Measured values as given in US20230105108A1, “COMPOUNDS FOR THE TREATMENT OF BACTERIAL INFECTIONS AND POTENTIATION OF ANTIBIOTICS” (GEORGIA STATE UNIVERSITY RESEARCH FOUNDATION, INC., priority 2019, published 2023).
Where a name gives a salt, the structure may show the parent alone. Read-outs that look alike come from different tables or passages of the source.

Key:
[1] = system: E. coli; assay: Sensitization of E. coli (sensitization fold), Example 2; type: cell-based
Protocol: The sensitization fold of select compounds of the present invention was determined. E. coli bacteria were cultured in nutrient broth at 37° C. overnight prior to treatment. […] Bacterial density was measured based on OD600.

[2] = Cytotoxicity in H9c2 cells (CCK-8); type: cell-based; conditions: rat, H9c2 cells; for CC50 at 24 h: H9c2 cell line
Protocol: The cytotoxicity in H9c2 (ATCC®CRL-1446™) cells was also determined. The H9c2 cells were maintained in DMEM (Dulbecco's Modified Eagle's Medium) supplemented with 10% fetal bovine serum (MidSci; S01520HI) and 1% penicillin-streptomycin (Sigma-Aldrich; P4333) at 37° C. with 5% CO2. The H9c2 cells were seeded in 96-well plate one day before the experiment. Different concentrations of di-amidine compounds were added into the H9c2 cells. The cells were then incubated with the compounds for 24 hours at 37° C. with 5% CO2. The cell viability was tested by the CCK-8. Specifically, after 24 hour incubation, 10 μL CCK-8 was added to each well. After 3 hours incubation at 37° C., the absorbance at 450 nm was recorded by a plate reader.

[3] = Cytotoxicity on mammalian cells (CCK-8), HEK293; type: cell-based; conditions: human, HEK293 cells; HEK293 cell line; 24 h
Protocol: (§1) Cytotoxicity test of bacterial sensitizers on mammalian cells. Cell viability was assessed by using Cell Counting Kit-8 (CCK-8, Dojindo, Japan). HEK293 or NIH3T3 cells were seeded in a 96-well plate one day before the experiment to reach 80% confluency. Cells were then incubated with various concentration of bacterial sensitizers at 37° C. with 5% CO2 for 24 h, then 10 μL of CCK-8 solution was added to each well, and the plate was incubated for an additional at 37° C. 2 h with 5% CO2. The optical density at 450 nm was recorded by plate reader; and the results were calculated as a percentage of viability compared with the untreated control.

[4] = system: B. subtilis; assay: MIC determination and sensitization fold on B. subtilis; type: cell-based; conditions: B. subtilis; for Sensitization fold: erythromycin; for MIC: compound alone, read-out: MIC
[5] = system: M. smegmatis; assay: MIC on mycobacteria; type: cell-based, Mycobacterium smegmatis; conditions: for MIC: Mycolicibacterium smegmatis, read-out: MIC on mycobacteria
[6] = Cytotoxicity on mammalian cells (CCK-8), NIH3T3; type: cell-based; conditions: mouse, NIH3T3 cells, 3T3 cell line
Protocol: as §1

[7] = system: E. coli (ATCC 25922); assay: MIC determination, sensitization fold and FIC index on E. coli; type: cell-based
Protocol: (§2) Bacteria culture and MICs determination: Gram-negative bacteria were cultured in Mueller Hinton II cation-adjusted broth. Gram-positive bacteria were cultured in LB broth. Mycobacterium smegmatis was cultured in Middlebrook 7H9 Broth. MICs of antibiotics itself were determined by performing two-fold serial dilutions of antibiotics. MICs of antibiotics in the presence of bacterial sensitizers were determined by performing two-fold serial dilutions of antibiotics with or without a constant concentration of bacterial sensitizers. The MICs tests were performed on 96-well plates with a final volume of 200 μl Mueller Hinton II cation-adjusted broth in each well. Each well was inoculated with 5×10^5 CFU/ml bacteria and was incubated for 24 h at 37° C. with continuous shaking of 200 rpm. The bacterial density was then determined by OD600. Bacterial growth %=OD600 of antibiotic treatment group/OD600 of antibiotic non-treatment group. MICs was determined as the concentrations that inhibit more than 90% of bacteria growth.
(§3) Sensitization fold determination and FIC index calculations: Sensitization fold=MIC of antibiotic only/MIC of antibiotic with bacterial sensitizer. […] Since the MICs were determined by performing two-fold serial dilutions of antibiotic, so the sensitization fold can is the times of 2.
FIC index between compound a and b was calculated according to the formula below: […]
FIC≤0.5: Synergy; FIC between 0.5 and 1: Additive; FIC between 1 and […]: no interaction; FIC >4: antagonism.
(§4) Bacteria strains (as indicated in Table 5B) were cultured with rifampicin at various concentrations in the presence or absence of 10 μM of the indicated compound for 20 h at 37° C. The MIC, sensitization, cytotoxicity, and MIC on mycobacteria were tested according to methods described herein. […] The sensitization activities of compounds on MRSA were tested using rifampicin. The sensitization activities of compounds on E. coli were tested using rifampicin.

[8] = system: HEK293 cells; assay: Cytotoxicity on mammalian cells (CCK-8), HEK293; type: cell-based; conditions: Homo sapiens
Protocol: as §1

[9] = system: MRSA (ATCC 33592); assay: MIC determination and sensitization fold on MRSA; type: cell-based, methicillin-resistant Staphylococcus aureus; conditions: Staphylococcus aureus, 24 h
Protocol: Bacteria strains: E. coli (ATCC 25922), A. baumannii (ATCC 17978), K. pneumoniae (43816), S. maltophilia (ATCC 31559), S. typhimurium (ATCC 14028), C. werkmanii (ATCC 51114), S. aureus (ATCC 12600) and methicillin-resistant Staphylococcus aureus (MRSA, ATCC 33592) strains were purchased from ATCC. NR698 was provided.
as §2, §3, §4

[10] = E. coli, rifampicin, compound at 12.5 μM
[11] = E. coli, rifampicin, compound at 25 μM
[12] = Escherichia coli, ATCC25922, 24 h
[13] = MRSA, compound alone, read-out: MIC
[14] = 10 μM compound, rifampicin as the antibiotic (Table 6)
[15] = Escherichia coli, ATCC25922, 24 h, E. coli, compound alone, read-out: MIC
[16] = E. coli, rifampicin, compound at 10 μM

N=C(N)c1ccc(-c2ccc(-c3ccc(-c4ccc(C(=N)N)o4)o3)o2)o1 [Compound N]
Sensitization ability: fold sensitization of E. coli towards rifampicin ([1]; compound at 25 μM): At 25 μM, sensitize E. coli towards rifampicin for 64-fold.
IC50 at 24 h ([2]; H9c2 cells (ATCC CRL-1446)): 100 µM

N=C(N)c1ccc(OCc2cc(COc3ccc(C(=N)N)cc3)cc(COc3ccc(C(=N)N)cc3)c2)cc1 [MD-107, 4,4′,4″-((benzene-1,3,5-triyltris(methylene))tris(oxy))tribenzimidamide trihydrochloride]
CC50 at 24 h [3]: > 100 µM
CC50 at 24 h [2]: > 100 µM
Sensitization fold ([4]; compound at 6 μM): 8-fold at 6 μM
MIC ([4]; Bacillus subtilis, 24 h): 12.5 µM
MIC [5]: 3 to 6 µM
CC50 at 24 h [6]: > 100 µM
Sensitization fold [7, 10]: 4-fold at 12.5 μM
Sensitization fold [7, 11]: 8-fold at 25 μM
MIC [7, 12]: 50 µM

Cc1cc(CSc2ccc(C(=N)N)cc2)cc(CSc2ccc(C(=N)N)cc2)c1 [MD-117, 4,4′-(((5-methyl-1,3-phenylene)bis(methylene))bis(sulfanediyl)) dibenzimidamide dihydrochloride]
IC50 ([8]; HEK293 cells (Table 6), read-out: IC50): 25 to 50 µM
CC50 at 24 h [3]: 25 to 50 µM
MIC [9, 13]: 12.5 µM
Sensitization fold ([4]; compound at 3 μM): 8-fold at 3 μM.
Sensitization fold ([4]; compound at 6 μM): 32-fold at 6 μM
MIC ([4]; Bacillus subtilis, 24 h): 25 µM
CC50 at 24 h [6]: 25 to 50 µM
Sensitization fold [7, 14]: 32 fold
Sensitization fold ([7]; E. coli, rifampicin, compound at 6 μM): 8-fold at 6 μM.
Sensitization fold [7, 10]: 32-fold at 12.5 μM
MIC [7, 15]: 50 µM

Cc1cc(COc2ccc(CN)cc2)cc(COc2ccc(CN)cc2)c1 [MD-106, ((((S-methyl-1,3-phenylene)bis(methylene))bis(oxy))bis(4,1-phenylene))dimethanamine dihydrochloride]
CC50 at 24 h [3]: 25 µM
CC50 at 24 h [2]: 12.5 µM
MIC [9, 13]: > 50 µM
Sensitization fold ([4]; compound at 4 μM): 4-fold at 4 μM
Sensitization fold ([4]; compound at 12 μM): 16-fold at 12 μM
MIC ([4]; Bacillus subtilis, 24 h): > 50 µM
CC50 at 24 h [6]: 25 µM
Sensitization fold [7, 14]: 1 fold
Sensitization fold [7, 11]: 4-fold at 25 μM
MIC [7, 15]: 100 µM
sensitization activity ([7]; rifampicin, compound at up to 10 μM): no sensitization activity

CC(C)(C)c1cc(COc2ccc(C(=N)N)cc2)cc(COc2ccc(C(=N)N)cc2)c1 [MD-105, 4,4′-(((5-(tert-butyl)-1,3-phenylene)bis(methylene))bis(oxy))dibenzimidamide dihydrochloride]
IC50 ([8]; HEK293): 25 to 50 µM
CC50 at 24 h [2]: 25 µM
MIC [5]: 6 µM
Sensitization fold [7, 14]: 16 fold
Sensitization fold [7, 16]: 16-fold at 10 μM.
MIC [7, 12]: 25 µM

N=C(N)Nc1ccc(-c2ccc(-c3nc4ccc(NC(=N)N)cc4[nH]3)o2)cc1 [Compound B]
Sensitization ability: fold sensitization of E. coli towards rifampicin ([1]; compound at 25 μM): At 25 μM, sensitize E. coli towards rifampicin for 16-fold;
IC50 at 24 h ([2]; H9c2 cells (ATCC CRL-1446)): 100 µM

N=C(N)c1ccc(-c2ccc(-c3ccc(-c4ccc(C(=N)N)o4)s3)s2)o1 [Compound P]
Sensitization ability: fold sensitization of E. coli towards rifampicin ([1]; compound at 25 μM): At 25 μM, sensitize E. coli towards rifampicin for 32-fold;
IC50 at 24 h ([2]; H9c2 cells (ATCC CRL-1446)): 50 µM

N=C(N)c1ccc(-c2ccc(-c3ccc(-c4ccc(C(=N)N)cc4)o3)o2)cc1 [Compound T]
Sensitization ability: fold sensitization of E. coli towards rifampicin ([1]; compound at 25 μM): At 25 μM, sensitize E. coli towards rifampicin for 32-fold;
IC50 at 24 h ([2]; H9c2 cells (ATCC CRL-1446)): > 100 µM

N=C(N)c1ccc(-c2ccc(-c3ccc(-c4ccc(C(=N)N)s4)o3)o2)s1 [Compound Q]
Sensitization ability: fold sensitization of E. coli towards rifampicin ([1]; compound at 25 μM): At 25 μM, sensitize E. coli towards rifampicin for 32-fold;
IC50 at 24 h ([2]; H9c2 cells (ATCC CRL-1446)): 50 µM

N=C(N)Nc1ccc(-c2ccc(-c3ccc(NC(=N)N)cc3)cc2)cc1 [Compound A]
Sensitization ability: fold sensitization of E. coli towards rifampicin ([1]; compound at 25 μM): At 25 μM, sensitize E. coli towards rifampicin for 256-fold;
IC50 at 24 h ([2]; H9c2 cells (ATCC CRL-1446)): 50 µM

N=C(N)Nc1ccc(-c2ccc(-c3ccc(-c4ccc(NC(=N)N)cc4)o3)o2)cc1 [Compound O]
Sensitization ability: fold sensitization of E. coli towards rifampicin ([1]; compound at 10 μM): At 10 μM, sensitize E. coli towards rifampicin for 256-fold.
IC50 at 24 h ([2]; H9c2 cells (ATCC CRL-1446)): > 100 µM

CC(C)(C)c1cc(COc2ccc(C(=N)N)cc2F)cc(COc2ccc(C(=N)N)cc2F)c1 [MD-115, 4,4′-(((5-(tert-butyl)-1,3-phenylene)bis(methylene))bis(oxy))bis(3-fluorobenzimidamide) dihydrochloride]
IC50 ([8]; HEK293): 25 to 50 µM
CC50 at 24 h [3]: 25 to 50 µM
CC50 at 24 h [2]: 25 µM
MIC [9]: 25 µM
Sensitization fold ([4]; compound at 6 μM): 8-fold at 6 μM
CC50 at 24 h [6]: 25 to 50 µM
Sensitization fold [7, 14]: 256 fold
Sensitization fold [7, 16]: 256-fold at 10 μM

N=C(N)c1ccc(OCc2cccc(COc3ccc(C(=N)N)cc3)c2F)cc1 [DB2573, 1,3-Bis{(4-amidino)-phenoxymethyl}-2-fluorobenzene dihydrochloride]
CC50 at 24 h [2]: 50 µM
Sensitization fold ([4]; compound at 12 μM): 4-fold at 12 μM
MIC ([4]; Bacillus subtilis, 24 h): 25 µM
MIC [5]: 12 µM
Sensitization fold ([7]; E. coli, rifampicin, compound at 12 μM): 32-fold at 12 μM
MIC [7, 12]: 25 µM

N=C(N)c1ccc(-c2ccc(-c3ccc(-c4ccc(C(=N)N)o4)o3)o2)cc1 [Compound M]
Sensitization ability: fold sensitization of E. coli towards rifampicin ([1]; compound at 15 μM): 32 fold
Sensitization ability: fold sensitization of E. coli towards rifampicin ([1]; compound at 25 μM): 516 fold
IC50 at 24 h ([2]; H9c2 cells (ATCC CRL-1446)): 100 µM

1, 4-Bis [((4-amidino)-2-methoxy)-phenoxy methyl]2-fluorobenzene dihydrochloride [MD-104]
MIC [4]: 25 µM
Sensitization fold ([4]; compound at 6 μM): 2-fold at 6.
Sensitization fold ([4]; compound at 12 μM): 8-fold at 12 μM
MIC on mycobacteria ([5]; M. smegmatis): 6 to 12 µM
MIC ([7]; E. coli, compound alone, read-out: MIC): 50 µM
Sensitization ([7]; E. coli, rifampicin, compound up to 25 μM): No effect up to 25 μM.

N=C(N)c1ccc(-c2ccc(-c3ccc(C(=N)N)cc3)[se]2)cc1 [Compound R]
Sensitization ability: fold sensitization of E. coli towards rifampicin ([1]; compound at 25 μM): At 25 μM, sensitize E. coli towards rifampicin for 32-fold;
IC50 at 24 h [2]: > 100 µM

N=C(N)Nc1ccc(-c2ccc(-c3ccc(NC(=N)N)cc3Cl)o2)c(Cl)c1 [Compound C]
Sensitization ability: fold sensitization of E. coli towards rifampicin ([1]; compound at 4 μM): At 4 μM, sensitize E. coli towards rifampicin for 516-fold;
IC50 at 24 h ([2]; H9c2 cells (ATCC CRL-1446)): 50 µM

N=C(N)c1ccc(-c2ccc3[nH]cc(-c4nc5ccc(C(=N)N)cc5[nH]4)c3c2)cc1 [Compound U, 3-(5-Amidinobenzimidazol-2-yl)-5-(4-amidinophenyl)indole acetate salt]
Sensitization ability: fold sensitization of E. coli towards rifampicin ([1]; compound at 10 μM): At 10 μM, sensitize E. coli towards rifampicin for 32-fold;
IC50 at 24 h ([2]; H9c2 cells (ATCC CRL-1446)): 100 µM
